Data on 2 compounds can be found in article PMC8424629, “Chemical “Butterfly Effect” Explaining the Coordination Chemistry and Antimicrobial Properties of Clavanin Complexes” (Inorganic Chemistry, 2021).

Values after ≈ are worked out from the molar mass of the structure shown. Like-named read-outs stand apart in the source and are kept apart here.

The test system of series [1] is Candida albicans ATCC 10231. In words: microbe, parasite or virus in culture. The following applies: ATCC10231, 24 h.
In series [2] the test system is Candida albicans ATCC 10231. The following applies: ATCC 10231, 24 h.
Series [3] relates to Enterococcus faecalis ATCC 29212. The following applies: ATCC 29212, 24 h.
In series [4] the test system is Escherichia coli ATCC 25922. The following applies: ATCC 25922, 24 h.
Series [5] is classed as physicochemical. The procedure: (§1) All peptides ([…]-COOH, […]-COOH, […]
(§2) were purchased from KareBay Biochem (USA) (certified purity: 98 %) and were used as received.
(§3) The carbonate-free stock solutions of 0.1 M NaOH were purchased from Sigma-Aldrich and then potentiometrically standardized with the primary standard potassium hydrogen phthalate (99.9 % purity). […]
(§4) Stability constants for proton, Zn(II) and Cu(II) complexes were calculated from pH -metric titration curves carried out over the pH range 2-11 at T = 298 K in water solution of 4 mM HClO 4 and ionic strength 40 mM (SDS), using a total volume of 3 ml. The potentiometric titrations were performed using a Metrohm Titrando 905 titrator and a Mettler Toledo InLab Micro comb ined pH electrode. The thermostabilized glass -cell was equipped with a magnetic stirring system, a microburette delivery tube and an inlet –outlet tube for argon.
(§5) Solutions were titrated with 0.1 M carbonate-free NaOH. The electrodes were calibrated daily f or hydrogen ion concentration by titrating HClO 4 with NaOH under the same experimental conditions as above. The purities and the exact concentrations of the ligand solutions were determined by the Gran method. 1 The ligand concentration was 0.5 mM. The Zn(II) and Cu(II) to ligand ratio was 1 : 1.
(§6) The standard potential and the slope of the electrode couple were computed by means of Glee 2 program. The HYPERQUAD 20063 program was used for the stability constant calculations. The standard deviations were computed by HYPERQUAD 2006 and refer to random errors only. The constants for the hydrolytic Zn(II ) species

The subject of series [6] is MRSA Staphylococcus aureus ATCC 43300. Conditions: ATCC 43300, 24 h.
The format of series [7] is binding. The procedure: as §1, §2, §3, §4, §5, §6
Setting [8] is: potentiometry pH 2-11, 298 K, 4 mM HClO4, I = 40 mM SDS, ligand 0.5 mM, SD in parentheses.
Where [9] appears, read: potentiometry, 298 K, I = 40 mM SDS, Cu(II):L 1:1, 0.5 mM, SD in parentheses.
Where [10] appears, read: potentiometry, 298 K, I = 40 mM SDS, Zn(II):L 1:1, 0.5 mM, SD in parentheses.

In series [1], `C[C@@H]1[C@H](O)[C@@H](C)/C=C/C=C/C=C/C=C/C=C/C=C/C=C/[C@H](O[C@@H]2O[C@H](C)[C@@H](O)[C@H](N)[C@@H]2O)C[C@@H]2O[C@](O)(C[C@@H](O)C[C@@H](O)[C@H](O)CC[C@@H](O)C[C@@H](O)CC(=O)O[C@H]1C)C[C@H](O)[C@H]2C(=O)O` [amphotericin B] yielded an MIC of 1 µg/mL (≈ 1.08 µM).
In series [2], “H-AFKLLGRIIHHVGNFVYGFSHVF-OH [Clavanin D]” yielded an MIC of 16 µg/mL. This compound registered an MIC in series [3] of 128 µg/mL. Also, in series [4], the MIC is 64 µg/mL. In series [5], the “pKa, species H2L” value came to 10.08; the “pKa, species H3L” value is recorded as 8.68; the “pKa, species H4L” value was determined as 7.81; the “pKa, species H5L” value was 7.24. In addition, in series [5], the “pKa, species H6L” value is 5.26 and the “pKa, species HL” value amounted to 11.13. Also, in series [5] (setting [8]), the “log β H2L” value is 21.21 (4), the “log β H3L” value is given as 29.89 (5), the “log β H4L” value is recorded as 37.70 (5) and the “log β H5L” value was 44.94 (5). In series [5] (setting [8]), the “log β H6L” value is on record as 50.20 (5) and the “log β HL” value is listed as 11.13 (6). Also, in series [6], the MIC stood at 128 µg/mL. In addition, in series [7], the “pKa, line CuH2L” value was 6.95; the “pKa, line CuH3L” value is listed as 6.00; the “pKa, line CuH4L” value was determined as 5.23; the “pKa, line CuH-1L” value is given as 9.92. In series [7], the “pKa, line CuH-2L” value came to 10.54; the “pKa, line CuH-3L” value was found to be 11.91; the “pKa, line CuHL” value was found to be 7.94; the “pKa, line CuL” value worked out at 8.79. For the same compound, the “pKa, line ZnH2L” value in series [7] was 8.22. In addition, in series [7] (setting [9]), the “log β CuH2L” value is listed as 30.38 (2), the “log β CuH3L” value is 37.33 (2), the “log β CuH4L” value is given as 43.33 (1) and the “log β CuH5L” value was 48.56 (3). In series [7] (setting [9]), the “log β CuH-1L” value is on record as 3.73 (3), the “log β CuH-2L” value is given as -6.81 (4), the “log β CuH-3L” value is recorded as -18.72 (1) and the “log β CuHL” value is 22.44 (3). For the same compound, the “log β CuL” value in series [7] (setting [9]) is listed as 13.65 (3). Moreover, in series [7] (setting [10]), the “log β ZnH2L” value is 25.94 (2), the “log β ZnH3L” value was 34.16 (3), the “log β ZnH5L” value was 47.63 (12) and the “log β ZnL” value is reported as 6.73 (14).
